“And” between values parts separate entries of the source, which are not always exact repeats. Identical values can stand only once.
Assays:
OGA = conditions: cited from earlier work
HexA/B = molecular target: HexA/B; set-up: method as in PMID 34186233; conditions: enzyme contains two predominant isozymes, Hex A and Hex B; cited from earlier work
hOGA = molecular target: T1, hOGA (Homo sapiens, UniProt O60502); assay: hOGA inhibition, 4-MU-GlcNAc fluorescent substrate, Dixon plots (competitive model); type: biochemical; conditions: for Ki(hHexB)/Ki(hOGA): ratio defines selectivity towards hOGA; for Ki: recombinant hOGA, 4-MU-GlcNAc, pH 7.5, 37 °C
T1 construct: The gene construct encoding the full-length human OGA fused to N-terminal His6-tag; His6 (N); made in house
T1 sequence (O60502 1-916): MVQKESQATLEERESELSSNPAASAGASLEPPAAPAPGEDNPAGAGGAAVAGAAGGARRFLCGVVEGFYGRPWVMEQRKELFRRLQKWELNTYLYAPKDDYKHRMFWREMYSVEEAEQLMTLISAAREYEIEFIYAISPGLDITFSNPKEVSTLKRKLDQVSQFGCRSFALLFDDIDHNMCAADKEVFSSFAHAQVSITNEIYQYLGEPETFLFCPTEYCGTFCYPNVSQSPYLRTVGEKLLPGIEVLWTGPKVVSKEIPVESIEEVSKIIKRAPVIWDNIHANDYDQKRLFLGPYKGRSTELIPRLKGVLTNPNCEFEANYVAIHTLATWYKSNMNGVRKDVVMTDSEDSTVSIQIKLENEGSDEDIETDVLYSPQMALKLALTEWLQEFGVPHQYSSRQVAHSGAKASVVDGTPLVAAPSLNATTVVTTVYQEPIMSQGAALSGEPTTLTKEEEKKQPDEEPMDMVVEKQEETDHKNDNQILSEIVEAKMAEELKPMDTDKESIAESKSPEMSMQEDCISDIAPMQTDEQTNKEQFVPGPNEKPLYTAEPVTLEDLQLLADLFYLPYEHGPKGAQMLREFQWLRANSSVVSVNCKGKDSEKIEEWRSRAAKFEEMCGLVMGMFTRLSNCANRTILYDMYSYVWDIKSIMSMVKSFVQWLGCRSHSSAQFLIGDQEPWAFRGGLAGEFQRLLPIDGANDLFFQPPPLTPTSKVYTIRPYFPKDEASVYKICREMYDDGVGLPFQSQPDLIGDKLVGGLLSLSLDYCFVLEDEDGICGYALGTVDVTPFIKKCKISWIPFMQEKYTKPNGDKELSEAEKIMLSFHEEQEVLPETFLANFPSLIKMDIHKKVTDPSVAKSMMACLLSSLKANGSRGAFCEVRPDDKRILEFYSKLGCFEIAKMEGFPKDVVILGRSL
Experimental: (§1) The inhibitory potency of compounds 5a–f was evaluated against recombinant hOGA and hHexB enzymes. The enzymes were prepared and purified as described previously. For inhibition of hOGA, fluorescent 4-MU-GlcNAc was used as the substrate. […] In the case of inhibition of hHexB, Michaelis–Menten kinetics were evaluated using pNP-GlcNAc as a colorimetric substrate. Inhibition constants (Ki) were determined by nonlinear regression analyses by employing the competitive inhibition model (cf. the Experimental section and Supplementary Materials).
(§2) The detailed protocol for the expression of hOGA and the subsequent purification procedure of the recombinant protein have been described in our previous work. The gene construct encoding the full-length human OGA fused to N-terminal His6-tag was kindly provided by Prof. D. Vocadlo (SFU, Burnaby, BC, Canada). Human β-N-acetylhexosaminidase B (hHexB) was expressed in Pichia pastoris, and the extracellularly produced enzyme was isolated according to the procedure described by Krejzová et al..
The inhibitory potency of compounds 5a–f was evaluated against recombinant enzymes hOGA and hHexB. In the case of hOGA inhibition, 4-MU-GlcNAc was used as a substrate at three concentrations (7 µM, 12 µM, and 25 µM) in the reaction mixtures containing 50 mM potassium phosphate buffer (pH 7.5), an inhibitor 5a–f in a final concentration of 0 to 750 nM, and 3 nM hOGA. In all cases, the enzyme and the inhibitors were preincubated at 37 °C, then the reaction was initiated by the addition of the substrate. All reactions were carried out in a fluorescence cuvette (Hellma Analytics, Müllheim, Germany), held in the thermostat cell holder of a Jasco FP-8200 fluorescence spectrophotometer (Easton, MD, USA) equipped with a Xe lamp light source. The excitation of the reactions was performed at […] and emission was detected at […] every 10 s for 10 min. All measurements were performed in triplicates. Initial velocities were determined and the reciprocal of initial velocities was plotted against inhibitor concentrations. The inhibitory mode of the compounds on hOGA was assessed by the Cornish–Bowden method, which involves the plotting of [S]/v0 vs. inhibitor concentrations. […] Inhibition constants (Ki) were determined according to the competitive model of the Dixon method by plotting the reciprocal of initial velocities vs. inhibitor concentrations. The intersection point of the linearly fitted lines gave Ki in nM.

hHexB = molecular target: T2, hHexB (Homo sapiens, UniProt P07686); assay: hHexB inhibition, pNP-GlcNAc colorimetric substrate, Michaelis–Menten kinetics; type: biochemical; conditions: recombinant hHexB, pH 5.0, 35 °C
T2 construct: made in house; host or cells: Pichia pastoris
T2 sequence (P07686 122-556): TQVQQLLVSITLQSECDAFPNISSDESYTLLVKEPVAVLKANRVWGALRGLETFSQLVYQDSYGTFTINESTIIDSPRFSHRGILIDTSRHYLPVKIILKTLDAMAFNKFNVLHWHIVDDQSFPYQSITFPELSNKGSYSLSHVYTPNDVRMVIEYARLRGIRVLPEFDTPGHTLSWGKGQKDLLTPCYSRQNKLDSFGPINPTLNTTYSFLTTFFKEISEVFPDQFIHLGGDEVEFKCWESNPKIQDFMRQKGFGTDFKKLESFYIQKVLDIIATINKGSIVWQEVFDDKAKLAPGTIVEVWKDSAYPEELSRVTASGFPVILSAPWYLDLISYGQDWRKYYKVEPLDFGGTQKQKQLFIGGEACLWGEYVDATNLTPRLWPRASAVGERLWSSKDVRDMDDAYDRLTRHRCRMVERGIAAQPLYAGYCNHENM
Experimental: as §1, §2
In the case of hHexB inhibition, Michaelis–Menten kinetics were evaluated using pNP-GlcNAc as a substrate. The kinetic reactions took place in Eppendorf tubes in a final volume of 400 μL containing 24 nM HexB, pNP-GlcNAc substrate in the range of 0.1–3 mM, and various inhibitor concentrations ranging from 0 to 300 nM in 50 mM citrate-phosphate buffer, pH 5.0. The reactions were incubated at 35 °C and then 50 μL samples were taken every 60 s. Samples were mixed with a quenching solution of 150 μL 0.1 M Na2CO3 and the absorbance of the solutions was measured at 420 nm by a Tecan Sunrise plate reader (Männedorf, Switzerland). All measurements were performed in triplicates. Initial velocities were determined from the data points by linear fit, and then nonlinear regression analyses were performed using the competitive inhibition model to calculate Ki values. GraphPad Prism software was used for the calculations.

HexB = conditions: cited from earlier work

Row | Ki(hHexB)/Ki(hOGA) (hOGA) | melting point | Ki (hOGA) | Ki (hHexB) [nM] | SMILES | Ki (OGA) [nM] | Ki (HexA/B) [nM] | Ki (HexB) [nM]
1 | 0.27 | 165 to 166 °C | 78 ± 1 nM | 21 ± 2 | CC(=O)N[C@H]1C(=NNS(=O)(=O)c2ccc(C)cc2)O[C@H](CO)[C@@H](O)[C@@H]1O [5a, 2-Acetamido-2-deoxy-D-glucono-1,5-lactone p-Toluenesulfonylhydrazone] | – | – | –
2 | 0.21 | 175 to 176 °C (dec.) | 230 ± 17 nM | 48 ± 4 | CC(=O)N[C@H]1C(=NNS(=O)(=O)c2ccc(C(F)(F)F)cc2)O[C@H](CO)[C@@H](O)[C@@H]1O [5b, 2-Acetamido-2-deoxy-D-glucono-1,5-lactone p-Trifluoromethylbenzenesulfonylhydrazone] | – | – | –
3 | – | 175 to 177 °C | 95 ± 11 nM | 45 ± 3 | CC(=O)N[C@H]1C(=NNS(=O)(=O)c2ccc(F)cc2)O[C@H](CO)[C@@H](O)[C@@H]1O [5c, 2-Acetamido-2-deoxy-D-glucono-1,5-lactone p-Fluorobenzenesulfonylhydrazone] | – | – | –
4 | 0.56 | 180 to 182 °C (dec.) | 70 ± 3 nM | 39 ± 2 | CC(=O)N[C@H]1C(=NNS(=O)(=O)c2ccc(Cl)cc2)O[C@H](CO)[C@@H](O)[C@@H]1O [5d, 2-Acetamido-2-deoxy-D-glucono-1,5-lactone p-Chlorobenzenesulfonylhydrazone] | – | – | –
5 | 1 | 172 to 173 °C | ~30 nM and 30 nM | 30 ± 3 | CC(=O)N[C@H]1C(=NNS(=O)(=O)c2ccc3ccccc3c2)O[C@H](CO)[C@@H](O)[C@@H]1O [5e, 2-Acetamido-2-deoxy-D-glucono-1,5-lactone 2-Naphthalenesulfonylhydrazone] | – | – | –
6 | 0.25 | 145 to 147 °C | 27 ± 7 nM | 6.8 ± 1.8 | CC(=O)N[C@H]1/C(=N/NS(=O)(=O)c2cccc3ccccc23)O[C@H](CO)[C@@H](O)[C@@H]1O [5f, 2-Acetamido-2-deoxy-D-glucono-1,5-lactone 1-Naphthalenesulfonylhydrazone] | – | – | –
7 | – | – | – | – | CC(=O)N[C@H]1/C(=N/OC(=O)Nc2ccc(Br)cc2)O[C@H](CO)[C@@H](O)[C@@H]1O [I (4-Br-C6H4-)] | 56 | – | 47
8 | – | – | – | – | CC(=O)N[C@H]1/C(=N/OC(=O)Nc2ccc(C)cc2)O[C@H](CO)[C@@H](O)[C@@H]1O [I (4-Me-C6H4-)] | 28 | – | 21
9 | – | – | – | – | CC(=O)N[C@H]1/C(=N/NC(=O)Nc2ccc(Cl)cc2)O[C@H](CO)[C@@H](O)[C@@H]1O [II (4-Cl-C6H4-)] | 83 | 170 | –
10 | – | – | – | – | CC(=O)N[C@H]1/C(=N/NC(=O)Nc2ccc(C)cc2)O[C@H](CO)[C@@H](O)[C@@H]1O [II (4-Me-C6H4-)] | 155 | 332 | –
11 | – | – | – | – | CC(=O)N[C@H]1/C(=N/NC(=O)Nc2ccccc2)O[C@H](CO)[C@@H](O)[C@@H]1O [II (Ph)] | 190 | 205 | –

Row | SMILES | Ki(hHexB)/Ki(hOGA) (hOGA) | melting point | Ki (hOGA) | Ki (hHexB) [nM] | Ki (OGA) [nM] | Ki (HexA/B) [nM] | Ki (HexB) [nM]
12 | CC(=O)N[C@H]1C(=NNC(=O)Nc2ccc3ccccc3c2)O[C@H](CO)[C@@H](O)[C@@H]1O [2-acetamido-2-deoxy-D-glucono-1,5-lactone 4-(2-naphthyl)-semicarbazone] | 1.3 | – | – | – | 36 | 47 | –
13 | CC(=O)N[C@H]1/C(=N/OC(=O)Nc2ccccc2)O[C@H](CO)[C@@H](O)[C@@H]1O [PUGNAc] | 0.8 | – | – | – | 46 | – | 36

From article PMC8834866, “2-Acetamido-2-deoxy-D-glucono-1,5-lactone Sulfonylhydrazones: Synthesis and Evaluation as Inhibitors of Human OGA and HexB Enzymes” (International Journal of Molecular Sciences, 2022)
